What was measured:
[1] = Overall conclusion of the sensory evaluation across aqueous solutions I to VI
Outline: (§1)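 8 trained panelists; degradant in ion-exchanged water + nootkatone. Off-flavor 0–4, relative (no masker = 4, water = 0); masker flavor 0–4, absolute.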

[2] = Sensory evaluation of aqueous solution III containing 1-octen-3-one 1 ppb: off-flavor intensity and masking component intensity; settings: 1-octen-3-one 1 ppb, average score 0-4
Outline: as §1

[3] = Sensory evaluation of aqueous solution II containing (E)-2-octenal 10 ppb: off-flavor intensity and masking component intensity; settings: (E)-2-octenal 10 ppb, average score 0-4
Outline: as §1

[4] = Sensory evaluation of aqueous solution IV containing 1,5-octadien-3-one 100 ppt: off-flavor intensity and masking component intensity; settings: aqueous solution IV, 1,5-octadien-3-one 100 ppt, average score 0-4
Outline: as §1

[5] = Sensory evaluation of aqueous solution VI containing 1,5-octadien-3-ol 10 ppb: off-flavor intensity and masking component intensity; settings: aqueous solution VI, 1,5-octadien-3-ol 10 ppb, average score 0-4
Outline: as §1

[6] = Sensory evaluation of aqueous solution V containing 1-octen-3-ol 10 ppb: off-flavor intensity and masking component intensity; settings: 1-octen-3-ol 10 ppb, average score 0-4
Outline: as §1

[7] = Sensory evaluation of aqueous solution I containing (E)-2-nonenal 1 ppb: off-flavor intensity and masking component intensity; settings: (E)-2-nonenal 1 ppb, average score 0-4
Outline: as §1

SMILES: CC(=O)/C=C/C1C(C)=CCCC1(C)C (stereo not drawn) [α-Ionone, α-ionone]
- concentration that masks the off-flavor and does not affect the flavor of the food and/or beverage itself, lower limit [1]: ≥ 1 ppt
- concentration that masks the off-flavor and does not affect the flavor of the food and/or beverage itself, upper limit [1]: ≤ 100 ppb
- Off-Flavor Intensity ([2]; 0.1 ppt added): 3.6 points
- Off-Flavor Intensity ([2]; 1 ppb added): 2.4 points
- Off-Flavor Intensity ([2]; 1 ppm added): 0.8 points
- Off-Flavor Intensity ([2]; 1 ppt added): 3.4 points
- Off-Flavor Intensity ([2]; 10 ppb added): 1.9 points
- Off-Flavor Intensity ([2]; 10 ppm added): 0.1 points
- Off-Flavor Intensity ([2]; 10 ppt added): 3.0 points
- Off-Flavor Intensity ([2]; 100 ppb added): 1.6 points
- Off-Flavor Intensity ([2]; 100 ppt added): 2.8 points
- Off-Flavor Intensity ([3]; 0.1 ppt added): 3.1 points
- Off-Flavor Intensity ([3]; 1 ppb added): 1.9 points
- Off-Flavor Intensity ([3]; 1 ppm added): 0.1 points
- Off-Flavor Intensity ([3]; 1 ppt added): 2.9 points
- Off-Flavor Intensity ([3]; 10 ppb added): 1.5 points
- Off-Flavor Intensity ([3]; 10 ppm added): 0.0 points
- Off-Flavor Intensity ([3]; 10 ppt added): 2.5 points
- Off-Flavor Intensity ([3]; 100 ppb added): 0.8 points
- Off-Flavor Intensity ([3]; 100 ppt added): 2.4 points
- Off-Flavor Intensity ([4]; 0.1 ppt added): 3.5 points
- Off-Flavor Intensity ([4]; 1 ppb added): 2.4 points
- Off-Flavor Intensity ([4]; 1 ppm added): 1.0 points
- Off-Flavor Intensity ([4]; 1 ppt added): 3.4 points
- Off-Flavor Intensity ([4]; 10 ppb added): 2.1 points
- Off-Flavor Intensity ([4]; 10 ppm added): 0.1 points
- Off-Flavor Intensity ([4]; 10 ppt added): 3.1 points
- Off-Flavor Intensity ([4]; 100 ppb added): 1.6 points
- Off-Flavor Intensity ([4]; 100 ppt added): 2.9 points
- Off-Flavor Intensity ([5]; 0.1 ppt added): 3.1 points
- Off-Flavor Intensity ([5]; 1 ppb added): 1.8 points
- Off-Flavor Intensity ([5]; 1 ppm added): 0.1 points
- Off-Flavor Intensity ([5]; 1 ppt added): 2.9 points
- Off-Flavor Intensity ([5]; 10 ppb added): 1.5 points
- Off-Flavor Intensity ([5]; 10 ppm added): 0.0 points
- Off-Flavor Intensity ([5]; 10 ppt added): 2.5 points
- Off-Flavor Intensity ([5]; 100 ppb added): 0.8 points
- Off-Flavor Intensity ([5]; 100 ppt added): 2.0 points
- Off-Flavor Intensity ([6]; 0.1 ppt added): 3.1 points
- Off-Flavor Intensity ([6]; 1 ppb added): 1.9 points
- Off-Flavor Intensity ([6]; 1 ppm added): 0.5 points
- Off-Flavor Intensity ([6]; 1 ppt added): 3.0 points
- Off-Flavor Intensity ([6]; 10 ppb added): 1.5 points
- Off-Flavor Intensity ([6]; 10 ppm added): 0.0 points
- Off-Flavor Intensity ([6]; 10 ppt added): 2.5 points
- Off-Flavor Intensity ([6]; 100 ppb added): 1.0 points
- Off-Flavor Intensity ([6]; 100 ppt added): 2.3 points
- Off-Flavor Intensity ([7]; 0.1 ppt added): 3.9 points
- Off-Flavor Intensity ([7]; 1 ppb added): 2.3 points
- Off-Flavor Intensity ([7]; 1 ppm added): 0.6 points
- Off-Flavor Intensity ([7]; 1 ppt added): 3.6 points
- Off-Flavor Intensity ([7]; 10 ppb added): 1.8 points
- Off-Flavor Intensity ([7]; 10 ppm added): 0.3 points
- Off-Flavor Intensity ([7]; 10 ppt added): 3.1 points
- Off-Flavor Intensity ([7]; 100 ppb added): 1.3 points
- Off-Flavor Intensity ([7]; 100 ppt added): 2.6 points

Source: US20250176599A1, “FLAVOR COMPOSITION AND FOOD AND BEVERAGE” (TAKASAGO INTERNATIONAL CORPORATION, priority 2021, published 2025)
